Columns and labels:
MAPK = experiment: Protracted MAPK (p38, Erk) activation after 16 h CD3 stimulation; format: cell-based, mouse; conditions: crt^−/− T cells, CD3 antibodies 16 h
NFAT1 = NFAT1 nuclear localization after T cell stimulation; format: cell-based, mouse
Method: In order to distinguish between TCR dependent and independent ERK activation, TCR signaling was blocked at 30 min after CD3 activation with the tyrosine kinase inhibitor PP2, which inhibits TCR dependent Ick/fyn src-like kinase activity.
NFAT nuclear translocation without concomitant MAPK activation, which can be obtained by ionomycin treatment, implements a transcriptional program leading to T cell anergy (Macian et al., Cell 109:719-731 (2002)). […] Then, we hypothesized that activation of T cells in the presence of oATP could induce T cell anergy.

cd3ε^−/− mice = experiment: Treg cell generation in murine model of inflammatory bowel disease; format: in vivo, mouse; conditions: 3 mM oATP in 100 μl i.v., with transfer or 16 hours after; day 28
From the text: FIG. 14: Experimental protocol for Treg generation in a mouse model of inflammatory bowel disease. • CD3ε^−/− mice were adoptively transferred with 2×10^5 naïve CD4^+ T cells; 2×10^5 naïve CD4^+ T cells with oATP; 2×10^5 naïve CD4^+ T cells with administration of oATP sixteen hours after the transfer; or 2×10^5 naïve CD4^+ T cells with 10^5 natural Treg cells. oATP-treated animals received daily intravenous oATP administration on days 2-5, no oATP administration on days 6 and 7, and daily intravenous oATP administration on days 8-12. Mice were analyzed for CD4^+ subpopulations on day 28 (See Example 12).
FIG. 15: Treg cell generation with oATP treatment in a mouse model of inflammatory bowel disease. • a) Colons, spleens and mesenteric lymph nodes of test animals were assessed for inflammation fourteen days after the last injection of oATP (see Example 12). • b) FACS analysis identifying the percentage of CD4^+CD25^highFoxp3 regulatory T cells. • c) FACS analysis identifying effector memory T cells as CD4^+CD44^+CD62L^− or CD4^+CD25^+CD69^+. The ratio of Treg cells to effector memory T cells is shown. […]
Four experimental groups of CD3ε^−/− mice were tested for Treg generation (FIG. 14). […] Mice were analyzed on day 28.
The colons of the animals were assessed for inflammation 14 days after the last injection of oATP (FIG. 15A). […]

With `Nc1ncnc2c1ncn2[C@@H](C=O)O[C@@H](C=O)COP(=O)(O)OP(=O)(O)OP(=O)(O)O` [oATP] the “prolonged activation of MAPK (p38 MAPK and Erk)” value (MAPK) was “almost completely abolished”, the “nuclear localization of NFAT1” value (NFAT1) was “did not significantly affect” and the “Treg generation from naïve T cells” value (cd3ε^−/− mice) was “most effective when oATP is present during the first activation of the naïve T cells”.

From US20110076258A1, “METHODS OF MODULATING T CELL- DEPENDENT IMMUNE RESPONSES” (Converge Biotech Inc., priority 2008, published 2011)
